We go through 20 compounds from article PMC6008168 (Bioorganic & medicinal chemistry letters, 2017).

Data set [1] is described as follows: Permeability, PAMPA assay. It counts as in vitro ADME.
In another data set the target is T1, VDR (Homo sapiens, UniProt P11473).
T1 sequence (P11473 1-427): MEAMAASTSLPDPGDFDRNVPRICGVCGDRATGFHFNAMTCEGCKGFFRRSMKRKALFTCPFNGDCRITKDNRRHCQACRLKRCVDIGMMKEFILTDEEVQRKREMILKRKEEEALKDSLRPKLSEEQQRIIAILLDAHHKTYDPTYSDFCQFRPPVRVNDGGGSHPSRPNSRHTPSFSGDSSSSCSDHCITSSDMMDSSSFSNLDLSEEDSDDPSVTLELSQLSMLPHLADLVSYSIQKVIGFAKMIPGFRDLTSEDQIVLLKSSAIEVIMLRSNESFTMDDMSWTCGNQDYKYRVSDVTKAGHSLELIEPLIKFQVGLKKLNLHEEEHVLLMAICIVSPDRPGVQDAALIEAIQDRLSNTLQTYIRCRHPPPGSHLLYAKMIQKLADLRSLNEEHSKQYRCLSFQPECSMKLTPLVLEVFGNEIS
The experiment in a line: VDR transcription assay. It counts as cell-based. The settings on record: compared with GW0742.

A further data set has as its target T2, PPARδ (Homo sapiens, UniProt Q03181).
T2 sequence (Q03181 211-439 limits assumed): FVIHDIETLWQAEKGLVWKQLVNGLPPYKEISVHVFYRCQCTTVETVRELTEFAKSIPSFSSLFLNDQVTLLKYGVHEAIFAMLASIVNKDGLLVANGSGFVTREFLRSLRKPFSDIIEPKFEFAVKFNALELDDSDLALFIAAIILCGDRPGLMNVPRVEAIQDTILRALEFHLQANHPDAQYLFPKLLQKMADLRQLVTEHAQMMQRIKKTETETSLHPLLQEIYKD
The data set can be described thus: PPARδ transcription 2-hybrid assay. It counts as cell-based. The settings on record: up to 100 μM.

Another data set is described as follows: Toxicity, Cell-TiterGlo. The following applies: n.o.= not observed. It counts as cell-based.

As for `COC(=O)c1ccccc1OCc1oc(-c2ccccc2OC)nc1C` [4a], the apparent permeability (Papp) (in general, a coefficient for how fast a substance crosses the barrier) in data set [1] is 468 ×10⁻⁶ cm/s.

On to `COC(=O)c1ccccc1OCc1oc(-c2cccc(OC)c2)nc1C` [4b], for which, in data set [1], the Papp is 513 ×10⁻⁶ cm/s.

For the compound `COC(=O)c1cccc(OCc2oc(-c3ccccc3OC)nc2C)c1` [5a], the “increased potency in respect to GW0742 (VDR antagonism)” value on VDR is on record as 10 fold. Moreover, the Papp in data set [1] was 380 ×10⁻⁶ cm/s. In addition, the “activation of PPARδ-mediated transcription (in words)” value at PPARδ is on record as “inability to activate”.

In data set [1], `COC(=O)c1cccc(OCc2oc(-c3cccc(OC)c3)nc2C)c1` [5b] showed a Papp of 427 ×10⁻⁶ cm/s.

`COC(=O)c1ccc(OCc2oc(-c3ccccc3OC)nc2C)cc1` [6a]: the apparent permeability coefficient (Papp) in data set [1] is 447 ×10⁻⁶ cm/s.

In data set [1], `COC(=O)c1ccc(OCc2oc(-c3cccc(OC)c3)nc2C)cc1` [6b] showed a Papp of 372 ×10⁻⁶ cm/s.

In data set [1], `COC(=O)Cc1ccc(OCc2oc(-c3ccccc3OC)nc2C)cc1` [7a] had a Papp of 275 ×10⁻⁶ cm/s.

In data set [1], `COC(=O)Cc1ccc(OCc2oc(-c3cccc(OC)c3)nc2C)cc1` [7b] showed an apparent permeability coefficient (Papp) of 479 ×10⁻⁶ cm/s. Besides, the “activation of PPARδ-mediated transcription (in words)” value on PPARδ is “without activating”.

Consider `COC(=O)CCc1ccc(OCc2oc(-c3ccccc3OC)nc2C)cc1` [8a], for which, in data set [1], the apparent permeability coefficient (Papp) is 457 ×10⁻⁶ cm/s.

Regarding `COC(=O)CCc1ccc(OCc2oc(-c3cccc(OC)c3)nc2C)cc1` [8b], in data set [1], the Papp was 457 ×10⁻⁶ cm/s.

The compound `COc1ccccc1-c1nc(C)c(COc2ccccc2C(=O)O)o1` [9a] had an apparent permeability coefficient (Papp) in data set [1] of 234 ×10⁻⁶ cm/s.

On to `COc1cccc(-c2nc(C)c(COc3ccccc3C(=O)O)o2)c1` [9b], for which, in data set [1], the apparent permeability coefficient (Papp) was 234 ×10⁻⁶ cm/s.

On to `COc1ccccc1-c1nc(C)c(COc2cccc(C(=O)O)c2)o1` [10a], for which, in the data set “Toxicity, Cell-TiterGlo”, the “% Toxicity at 100 μM” value is “n.o”. In addition, the Papp in data set [1] is 263 ×10⁻⁶ cm/s.

Compound `COc1cccc(-c2nc(C)c(COc3cccc(C(=O)O)c3)o2)c1` [10b] had a Papp in data set [1] of 132 ×10⁻⁶ cm/s.

Consider `COc1ccccc1-c1nc(C)c(COc2ccc(C(=O)O)cc2)o1` [11a], for which, in “Toxicity, Cell-TiterGlo”, the “% Toxicity at 100 μM” value was “n.o”. For the same compound, the apparent permeability coefficient (Papp) in data set [1] was 214 ×10⁻⁶ cm/s.

For `COc1cccc(-c2nc(C)c(COc3ccc(C(=O)O)cc3)o2)c1` [11b], the Papp in data set [1] is 170 ×10⁻⁶ cm/s.

Consider `COc1ccccc1-c1nc(C)c(COc2ccc(CC(=O)O)cc2)o1` [12a], for which, in “Toxicity, Cell-TiterGlo”, the “% Toxicity at 100 μM” value is listed as “n.o”. Besides, the Papp in data set [1] was 191 ×10⁻⁶ cm/s.

In data set [1], `COc1cccc(-c2nc(C)c(COc3ccc(CC(=O)O)cc3)o2)c1` [12b] gave an apparent permeability (Papp) of 132 ×10⁻⁶ cm/s.

`COc1ccccc1-c1nc(C)c(COc2ccc(CCC(=O)O)cc2)o1` [13a]: the Papp in data set [1] is 257 ×10⁻⁶ cm/s.

`COc1cccc(-c2nc(C)c(COc3ccc(CCC(=O)O)cc3)o2)c1` [13b] gave a Papp in data set [1] of 120 ×10⁻⁶ cm/s.
